SMILES strings stand for the structures.

The results in this text go back to ChEMBL document CHEMBL4334512, “Rationally Designed, Conformationally Constrained Inverse Agonists of RORγt-Identification of a Potent, Selective Series with Biologic-Like in Vivo Efficacy” (J Med Chem, 2019).

Series [1] is described as follows: Half life in mouse liver microsomes. It counts as ADME, Microsome. Background: Microsomes from liver hold many membrane-bound enzymes, among them those of drug oxidation.
For series [2], the target named is T1, Nuclear receptor subfamily 1 group I member 2 (Homo sapiens, UniProt O75469).
T1 sequence (O75469 whole entry): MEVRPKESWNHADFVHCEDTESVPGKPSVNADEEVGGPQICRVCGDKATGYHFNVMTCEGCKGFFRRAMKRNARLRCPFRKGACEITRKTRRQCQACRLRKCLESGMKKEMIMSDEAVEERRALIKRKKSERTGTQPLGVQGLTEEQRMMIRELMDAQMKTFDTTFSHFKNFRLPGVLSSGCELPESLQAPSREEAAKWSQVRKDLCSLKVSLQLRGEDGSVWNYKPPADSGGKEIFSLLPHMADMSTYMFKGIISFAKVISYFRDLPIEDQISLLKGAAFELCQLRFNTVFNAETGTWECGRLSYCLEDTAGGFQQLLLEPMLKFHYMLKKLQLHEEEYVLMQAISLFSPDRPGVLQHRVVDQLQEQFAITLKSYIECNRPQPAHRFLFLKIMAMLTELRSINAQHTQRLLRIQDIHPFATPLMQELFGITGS
Put plainly: Activity at PXR (unknown origin).

Series [3] is described as follows: Half life in rat liver microsomes. Type of series: ADME, Microsome.
Series [4] addresses T2, Nuclear receptor ROR-alpha (Homo sapiens, UniProt P35398).
T2 sequence (P35398 whole entry): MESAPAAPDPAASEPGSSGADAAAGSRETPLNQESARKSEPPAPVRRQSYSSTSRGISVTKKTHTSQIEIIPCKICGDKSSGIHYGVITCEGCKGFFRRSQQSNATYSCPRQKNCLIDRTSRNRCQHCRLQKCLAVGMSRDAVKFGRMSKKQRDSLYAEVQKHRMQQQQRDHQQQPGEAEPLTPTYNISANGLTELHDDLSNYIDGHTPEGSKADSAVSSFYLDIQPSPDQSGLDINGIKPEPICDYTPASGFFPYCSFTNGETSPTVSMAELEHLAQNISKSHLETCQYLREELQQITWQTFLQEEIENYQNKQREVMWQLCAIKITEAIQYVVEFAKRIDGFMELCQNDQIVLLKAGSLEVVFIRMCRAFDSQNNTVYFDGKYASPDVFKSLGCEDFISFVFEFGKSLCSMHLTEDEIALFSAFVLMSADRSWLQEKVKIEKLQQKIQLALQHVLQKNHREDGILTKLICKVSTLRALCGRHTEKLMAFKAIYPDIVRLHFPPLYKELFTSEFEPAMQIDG
Put plainly: Activity at RORalpha (unknown origin).

The target of series [5] is T3, Oxysterols receptor LXR-alpha (Homo sapiens, UniProt Q13133).
T3 sequence (Q13133 whole entry): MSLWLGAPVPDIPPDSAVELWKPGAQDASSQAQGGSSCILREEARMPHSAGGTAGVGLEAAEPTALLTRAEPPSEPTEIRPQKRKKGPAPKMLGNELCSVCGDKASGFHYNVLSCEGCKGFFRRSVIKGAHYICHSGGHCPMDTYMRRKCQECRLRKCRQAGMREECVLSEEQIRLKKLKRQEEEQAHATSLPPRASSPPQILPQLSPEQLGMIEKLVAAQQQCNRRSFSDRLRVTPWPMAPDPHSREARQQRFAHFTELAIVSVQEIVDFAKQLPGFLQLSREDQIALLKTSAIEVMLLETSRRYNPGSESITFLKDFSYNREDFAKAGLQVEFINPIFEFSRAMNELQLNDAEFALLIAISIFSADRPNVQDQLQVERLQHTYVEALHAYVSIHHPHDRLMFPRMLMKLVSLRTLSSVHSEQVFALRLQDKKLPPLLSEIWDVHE
Put plainly: Activity at LXRalpha (unknown origin).

The target in series [6] is T4, Nuclear receptor ROR-beta (Homo sapiens, UniProt Q92753).
T4 sequence (Q92753 whole entry): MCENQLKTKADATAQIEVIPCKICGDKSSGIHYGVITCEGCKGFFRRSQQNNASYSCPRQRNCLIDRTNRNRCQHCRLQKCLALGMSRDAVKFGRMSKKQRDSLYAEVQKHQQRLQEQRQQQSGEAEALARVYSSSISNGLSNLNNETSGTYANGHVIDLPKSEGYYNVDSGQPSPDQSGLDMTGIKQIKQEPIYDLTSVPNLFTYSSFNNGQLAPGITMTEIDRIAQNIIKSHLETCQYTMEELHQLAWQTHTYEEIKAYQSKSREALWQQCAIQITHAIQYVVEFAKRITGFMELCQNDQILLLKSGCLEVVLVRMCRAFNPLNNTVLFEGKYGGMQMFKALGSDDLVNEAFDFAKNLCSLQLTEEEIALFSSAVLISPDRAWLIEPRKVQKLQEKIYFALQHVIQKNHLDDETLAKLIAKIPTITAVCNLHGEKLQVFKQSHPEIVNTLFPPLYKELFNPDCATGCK
Put plainly: Activity at RORbeta (unknown origin).

For series [7], the target named is T5, Oxysterols receptor LXR-beta (Homo sapiens, UniProt P55055).
T5 sequence (P55055 whole entry): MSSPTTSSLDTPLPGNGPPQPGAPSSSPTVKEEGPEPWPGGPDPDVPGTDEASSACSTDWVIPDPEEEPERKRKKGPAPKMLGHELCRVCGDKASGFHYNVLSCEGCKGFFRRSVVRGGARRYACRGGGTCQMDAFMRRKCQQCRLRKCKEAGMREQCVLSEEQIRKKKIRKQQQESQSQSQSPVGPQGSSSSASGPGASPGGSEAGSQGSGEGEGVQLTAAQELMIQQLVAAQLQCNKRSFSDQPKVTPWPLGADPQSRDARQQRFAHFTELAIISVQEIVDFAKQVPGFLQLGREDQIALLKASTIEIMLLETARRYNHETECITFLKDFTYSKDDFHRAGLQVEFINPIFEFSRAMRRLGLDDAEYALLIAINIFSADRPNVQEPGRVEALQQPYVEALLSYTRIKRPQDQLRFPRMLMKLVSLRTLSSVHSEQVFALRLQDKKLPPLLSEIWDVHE
The series is described as follows: Activity at LXRbeta (unknown origin).

The nature of series [8]: Unbound fraction in human serum. Type of series: ADME, cell-free.
The target of series [9] is T6, Nuclear receptor ROR-gamma (Homo sapiens, UniProt P51449).
T6 sequence (P51449 whole entry): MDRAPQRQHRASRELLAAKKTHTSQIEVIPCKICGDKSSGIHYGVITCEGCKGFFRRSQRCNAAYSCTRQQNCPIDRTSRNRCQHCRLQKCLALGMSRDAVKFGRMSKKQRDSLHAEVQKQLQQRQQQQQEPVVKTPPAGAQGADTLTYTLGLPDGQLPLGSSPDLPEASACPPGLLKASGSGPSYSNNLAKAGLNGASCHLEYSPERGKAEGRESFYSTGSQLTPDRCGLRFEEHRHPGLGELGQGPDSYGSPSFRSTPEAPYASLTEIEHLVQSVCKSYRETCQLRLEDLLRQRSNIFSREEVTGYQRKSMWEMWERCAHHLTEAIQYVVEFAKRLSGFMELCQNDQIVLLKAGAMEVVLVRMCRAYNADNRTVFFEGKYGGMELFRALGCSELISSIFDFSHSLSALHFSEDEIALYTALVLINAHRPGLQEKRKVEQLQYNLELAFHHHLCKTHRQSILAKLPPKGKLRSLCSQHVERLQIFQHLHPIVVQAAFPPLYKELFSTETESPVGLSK
The series is described as follows: Inverse agonist activity at RORgammat in CD3 and CD28-stimulated human whole blood assessed as reduction in IL17A production incubated for 1 hr before CD3 and CD28 stimulation for 20 hrs by AlphaLISA method. It counts as tissue-based.

Series [10] is described as follows: Half life in human liver microsomes. It counts as ADME, Microsome.
For series [11], the target named is T6, Nuclear receptor ROR-gamma. The series is described as follows: Inverse agonist activity at full length human RORgammat expressed in human Jurkat cells assessed as inhibition of constitutive receptor activity incubated for 18 hrs by Gal4-Luc reporter gene assay. It counts as cell-based. In general terms: Reporter assays use an easily measured gene product as a stand-in for the process of interest.

Turning to `CN1C[C@H]2N(C(=O)C3(O)CCS(=O)(=O)CC3)CC[C@@]2(S(=O)(=O)c2ccc(F)cc2)c2ccc(C(F)(C(F)(F)F)C(F)(F)F)cc21`, the half-life in [1] is 0.433 h; in series [3], 1.4 h; in [10], > 2 h. The IC50 in series [2] is > 40 µM; in [4] it was > 10 µM; in series [5] it was > 10 µM; in series [6], > 10 µM; in series [7], > 10 µM. For the same molecule, the fraction unbound in [8] was found to be 0.003. Besides, the EC50 was 0.083 µM in series [9] and 0.02 µM in series [11].
Regarding `O=C(O)[C@H]1CC[C@](F)(C(=O)N2CC[C@@]3(S(=O)(=O)c4ccc(F)cc4)c4ccc(C(F)(C(F)(F)F)C(F)(F)F)cc4CC[C@@H]23)CC1`, the half-life in series [1], in series [3] and in series [10] was > 2 h throughout. Also, the IC50 in series [2] is > 40 µM; in series [4], > 10 µM; in [5] it was > 10 µM; in series [6], > 10 µM; in [7] it was > 10 µM. The EC50 in [9] amounted to 0.046 µM; in [11] it was 0.015 µM.

What is called half-life is how long it takes for the measured level to halve. A low value points to fast loss. Usually IC50 stands for the concentration that gives 50% inhibition. Low readings indicate higher potency, high ones lower potency. Usually fraction unbound stands for the share of the substance not bound to proteins or other matrix. The low end stands for extensive binding, the high end for weak binding. By EC50 is commonly meant the concentration that produces a half-maximal response.
